Assay results from patent publication US11673901B2, “Polycyclic compounds as allosteric SHP2 inhibitors” (Revolution Medicines, Inc., priority 2017, dated 2023).

Biological target: SHP2 (Homo sapiens (Human), UniProt Q06124)
Experiment: SHP2 allosteric inhibition assay (DiFMUP prompt fluorescence)
Type: biochemical
Conditions: 0.2 nM SHP2 activated with 0.5 μM Activating Peptide 1 or 2; substrate DiFMUP; Table 2, class symbols
Description: Without wishing to be bound by theory, SHP2 is allosterically activated through binding of bis-tyrosyl-phosphorylated peptides to its Src Homology 2 (SH2) domains. The latter activation step leads to the release of the auto-inhibitory interface of SHP2, which in turn renders the SHP2 protein tyrosine phosphatase (PTP) active and available for substrate recognition and reaction catalysis. The catalytic activity of SHP2 was monitored using the surrogate substrate DiFMUP in a prompt fluorescence assay format.
The phosphatase reactions were performed at room temperature in 96-well black polystyrene plate, flat bottom, non-binding surface (Corning, Cat #3650) using a final reaction volume of 100 μL and the following assay buffer conditions: 50 mM HEPES, pH 7.2, 100 mM NaCl, 0.5 mM EDTA, 0.05% P-20, 1 mM DTT.
The inhibition of SHP2 by compounds of the invention (concentrations varying from 0.00005-10 μM) was monitored using an assay in which 0.2 nM of SHP2 was incubated with 0.5 μM of Activating Peptide 1 (sequence: H2N-LN(pY)IDLDLV(dPEG8)LST(pY)ASINFQK-amide) or Activating Peptide 2 (sequence: H2N-LN(pY)AQLWHA(dPEG8)LTI(pY)ATIRRF-amide). After 30-60-minutes incubation at 25° C., the surrogate substrate DiFMUP (Invitrogen, Cat #D6567) was added to the reaction and activity was determined by a kinetic read using a microplate reader (Envision, Perkin-Elmer or Spectramax M5, Molecular Devices). The excitation and emission wavelengths were 340 nm and 450 nm, respectively. Initial rates were determined from a linear fit of the data, and the inhibitor dose response curves were analyzed using normalized IC50 regression curve fitting with control based normalization.

| IC50 [nM] | SMILES |
| --- | --- |
| ≤ 50 | Cc1nc(N2CCC3(CC2)CO[C@@H](C)[C@H]3N)n2ccnc2c1-c1ccc2c(c1Cl)OCCC2 [Compound 43, (3S,4S)-8-[8-(8-chloro-3,4-dihydro-2H-1-benzopyran-7-yl)-7-methylimidazo[1,2-c]pyrimidin-5-yl]-3-methyl-2-oxa-8-azaspiro[4.5]decan-4-amine] |
| ≤ 50 | Cc1nc(N2CCC3(CC2)CO[C@@H](C)[C@H]3N)n2ccnc2c1-c1ccc2c(c1Cl)OCC2 [Compound 44, (3S,4S)-8-[8-(7-chloro-2,3-dihydro-1-benzofuran-6-yl)-7-methylimidazo[1,2-c]pyrimidin-5-yl]-3-methyl-2-oxa-8-azaspiro[4.5]decan-4-amine] |
| ≤ 50 | Cc1nc(N2CCC3(CC2)CO[C@@H](C)[C@H]3N)n2ccnc2c1-c1cccc(C#N)c1Cl [Compound 45, 3-{5-[(3S,4S)-4-amino-3-methyl-2-oxa-8-azaspiro[4.5]decan-8-yl]-7-methylimidazo[1,2-c]pyrimidin-8-yl}-2-chlorobenzonitrile] |
| ≤ 50 | COc1nccc(-c2c(C)nc(N3CCC4(CC3)CO[C@@H](C)[C@H]4N)n3ccnc23)c1Cl [Compound 47, (3S,4S)-8-[8-(3-chloro-2-methoxypyridin-4-yl)-7-methylimidazo[1,2-c]pyrimidin-5-yl]-3-methyl-2-oxa-8-azaspiro[4.5]decan-4-amine] |
| ≤ 50 | Cc1nc(N2CCC3(CC2)CO[C@@H](C)[C@H]3N)n2ccnc2c1-c1ccc2ccnn2c1 [Compound 48, (3S,4S)-3-methyl-8-(7-methyl-8-pyrazolo[1,5-a]pyridin-6-yl-imidazo[1,2-c]pyrimidin-5-yl)-2-oxa-8-azaspiro[4.5]decan-4-amine] |
| ≤ 50 | Cc1nc(N2CCC3(CC2)CO[C@@H](C)[C@H]3N)n2ccnc2c1-c1cccc2c(Cl)c[nH]c12 [Compound 50, (3S,4S)-8-[8-(3-chloro-1H-indol-7-yl)-7-methylimidazo[1,2-c]pyrimidin-5-yl]-3-methyl-2-oxa-8-azaspiro[4.5]decan-4-amine] |
| 50 to 500 | Cc1nc(N2CCC3(CC2)CO[C@@H](C)[C@H]3N)n2ccnc2c1-c1ccn2ccnc2c1 [Compound 51, (3S,4S)-8-(8-imidazo[1,2-a]pyridin-7-yl-7-methyl-imidazo[1,2-c]pyrimidin-5-yl)-3-methyl-2-oxa-8-azaspiro[4.5]decan-4-amine] |
| ≤ 50 | Cc1nc(N2CCC3(CC2)CO[C@@H](C)[C@H]3N)n2ccnc2c1-c1cc(Cl)cc2cc[nH]c12 [Compound 52, (3S,4S)-8-[8-(5-chloro-1H-indol-7-yl)-7-methylimidazo[1,2-c]pyrimidin-5-yl]-3-methyl-2-oxa-8-azaspiro[4.5]decan-4-amine] |
| > 500 | C[C@@H]1OCC2(CCN(c3ncc(-c4ccnc(N)c4)c4nccn34)CC2)[C@@H]1N [Compound 58, (3S,4S)-8-[8-(2-aminopyridin-4-yl)imidazo[1,2-c]pyrimidin-5-yl]-3-methyl-2-oxa-8-azaspiro[4.5]decan-4-amine] |
| ≤ 50 | Cc1nc(N2CCC3(CC2)CC(N2CC(C#N)C2)C[C@H]3N)n2ccnc2c1-c1cccc(Cl)c1Cl (stereo partly drawn) [Compound 62, 1-[(4R)-4-amino-8-[8-(2,3-dichlorophenyl)-7-methylimidazo[1,2-c]pyrimidin-5-yl]-8-azaspiro[4.5]decan-2-yl]azetidine-3-carbonitrile] |

The next lines start with the compound.

| SMILES | IC50 [nM] |
| --- | --- |
| Cc1nc(N2CCC3(CC2)CO[C@@H](C)[C@H]3N)n2ccnc2c1-c1ccc2nccnc2c1Cl [Compound 41, (3S,4S)-8-[8-(5-chloroquinoxalin-6-yl)-7-methylimidazo[1,2-c]pyrimidin-5-yl]-3-methyl-2-oxa-8-azaspiro[4.5]decan-4-amine] | ≤ 50 |
| COc1c(C#N)ccc(-c2c(C)nc(N3CCC4(CC3)CO[C@@H](C)[C@H]4N)n3ccnc23)c1Cl [Compound 46, 4-{5-[(3S,4S)-4-amino-3-methyl-2-oxa-8-azaspiro[4.5]decan-8-yl]-7-methylimidazo[1,2-c]pyrimidin-8-yl}-3-chloro-2-methoxybenzonitrile] | ≤ 50 |
| COc1cc(Cl)c(Cl)c(-c2c(C)nc(N3CCC4(CC3)CO[C@@H](C)[C@H]4N)n3ccnc23)c1 [Compound 49, (3S,4S)-8-[8-(2,3-dichloro-5-methoxyphenyl)-7-methylimidazo[1,2-c]pyrimidin-5-yl]-3-methyl-2-oxa-8-azaspiro[4.5]decan-4-amine] | ≤ 50 |
| Cc1nc(N2CCC3(CC2)CO[C@@H](C)[C@H]3N)n2ccnc2c1-c1ccnc2cc[nH]c12 [Compound 53, (3S,4S)-3-methyl-8-(7-methyl-8-{1H-pyrrolo[3,2-b]pyridin-7-yl}imidazo[1,2-c]pyrimidin-5-yl)-2-oxa-8-azaspiro[4.5]decan-4-amine] | ≤ 50 |
| Cc1nc(N2CCC3(CC2)CO[C@@H](C)[C@H]3N)n2ccnc2c1-c1ccc(O)c(Cl)c1Cl [Compound 54, 4-{5-[(3S,4S)-4-amino-3-methyl-2-oxa-8-azaspiro[4.5]decan-8-yl]-7-methylimidazo[1,2-c]pyrimidin-8-yl}-2,3-dichlorophenol] | ≤ 50 |
| Cc1nc(N2CCC3(CC2)CO[C@@H](C)[C@H]3N)n2ccnc2c1-c1cccc2c(F)c[nH]c12 [Compound 55, (3S,4S)-8-[8-(3-fluoro-1H-indol-7-yl)-7-methylimidazo[1,2-c]pyrimidin-5-yl]-3-methyl-2-oxa-8-azaspiro[4.5]decan-4-amine] | ≤ 50 |
| C[C@@H]1OCC2(CCN(c3ncc(-c4cccc(Cl)c4Cl)c4nccn34)CC2)[C@@H]1N [Compound 56, (3S,4S)-8-[8-(2,3-dichlorophenyl)imidazo[1,2-c]pyrimidin-5-yl]-3-methyl-2-oxa-8-azaspiro[4.5]decan-4-amine] | ≤ 50 |
| COc1cccc(-c2cnc(N3CCC4(CC3)CO[C@@H](C)[C@H]4N)n3ccnc23)c1Cl [Compound 57, (3S,4S)-8-[8-(2-chloro-3-methoxyphenyl)imidazo[1,2-c]pyrimidin-5-yl]-3-methyl-2-oxa-8-azaspiro[4.5]decan-4-amine] | 50 to 500 |
| C[C@@H]1OCC2(CCN(c3ncc(-c4ccnc5[nH]ccc45)c4nccn34)CC2)[C@@H]1N [Compound 59, (3S,4S)-3-methyl-8-(8-{1H-pyrrolo[2,3-b]pyridin-4-yl}imidazo[1,2-c]pyrimidin-5-yl)-2-oxa-8-azaspiro[4.5]decan-4-amine] | > 500 |
| C[C@@H]1OCC2(CCN(c3ncc(-c4ccnc(N)c4Cl)c4nccn34)CC2)[C@@H]1N [Compound 60, (3S,4S)-8-[8-(2-amino-3-chloropyridin-4-yl)imidazo[1,2-c]pyrimidin-5-yl]-3-methyl-2-oxa-8-azaspiro[4.5]decan-4-amine] | > 500 |
| Cc1nc(N2CCC3(CC2)CO[C@@H](C)[C@H]3N)n2cnnc2c1Sc1ccnc(N)c1Cl [Compound 61, (3S,4S)-8-{8-[(2-amino-3-chloropyridin-4-yl)sulfanyl]-7-methyl-[1,2,4]triazolo[4,3-c]pyrimidin-5-yl}-3-methyl-2-oxa-8-azaspiro[4.5]decan-4-amine] | ≤ 50 |
| CNC(=O)O[C@H]1C[C@@H](N)C2(CCN(c3nc(C)c(-c4cccc(Cl)c4Cl)c4nccn34)CC2)C1 [Compound 63, (2R,4R)-4-amino-8-[8-(2,3-dichlorophenyl)-7-methylimidazo[1,2-c]pyrimidin-5-yl]-8-azaspiro[4.5]decan-2-yl N-methylcarbamate] | ≤ 50 |
